Measurements from patent US5157052A, “Method for inhibiting IgE production” (priority 1990, dated 1992).

Experiments:
IgE [1] = test: ED50 for inhibition of IgE calculated from the examples; type: in vivo, mouse; settings: dose to achieve 50% inhibition of IgE
Protocol: From the data in the above examples, the effective dose of each prostaglandin to achieve 50% inhibition of IgE (ED50) was calculated.

IgG1 = test: Serum IgG1 in anti-IgD stimulated mice (two site sandwich ELISA, Assay B); type: in vivo, mouse (Balb/c female); settings: 40 μg days 3 and 4; for IgG1 ± SD: Table 11
[2] = Diarrheal effects in rats; settings: rat, in vivo, po
Protocol: Briefly, adult Charles River male rats weighing 210-230 g were individually housed and fasted with water available ad libitum for 24 hours prior to the test. The animals (N=6-12) received logarithmically graded prostaglandin doses orally. Immediately after administration, the animals were returned to their cages, and diarrhea, if any, was assessed on an all or none basis for 8 hours after drug treatment. The ED50 and relative potency values were calculated by the logistic method of Berkson.

IgG2a = test: Serum IgG2a in anti-IgD stimulated mice (two site sandwich ELISA, Assay C); type: in vivo, mouse (Balb/c female); settings: 40 μg days 3 and 4; for IgG2a ± SD: Table 11
Protocol: Sera from mice treated with compounds in accordance with the method of the invention are analyzed for levels of IgG1, IgG2a, IgG3, and IgM.
Measurement of mouse IgG2a by a two site sandwich ELISA is performed in substantial accordance with the teaching of Assay B except with the following changes. NuncImmulon II plates are used in this assay. The IgG2a standard is purchased from Southern Biotech. The standard curve is linear between 4-250 ng/ml. Serum containing IgG2a is diluted 1/6400 to 1/1,000,000. About a 1/6,000 dilution of goat anti mouse IgG2a (Southern Biotech) conjugated to alkaline phosphatase is used.
Sera from the mice described in Example 13 are analyzed for the levels of IgG1, IgG2a, and IgG3 by Assays B, C, and D, respectively.
Two groups of 4 Balb/c female mice per group are injected with both 100 μg FF1-4D5 antibody and 100 μg H∂A1 antibody. One of these groups is a stimulated control designated Group B. On day 3 and 4, the other group is injected with 40 μg (±) methyl 11α, 16-dihydroxy-1-methyl-9-oxoprosta-4Z,13E-dien-1-oate. Another group is injected with only PBS as an unstimulated control (Group A). On day -1 and 8, 50-100 μl of serum is recovered and analyzed for IgE, IgG1 and IgG2a by Assays A, B, and C, respectively.
3 groups of 4 Balb/c female mice per group are injected with both 100 μg FF1-4D5 antibody and 100 μg H∂A1 antibody on day 0. Group A is given no further treatment. On day 3 and 4, one group of mice is injected with 20 μg (±) methyl 2-[2-[3R-3α-hydroxy-2β-(4-hydroxy-4-methyl-1E-octenyl-5-oxo-1α-cyclopentyl]-methyl]cyclopropanebutanoate (Group B) and another group with 20 μg (±) methyl 2-[2-[3R-3α-hydroxy-2β-(4-hydroxy-4-methyl-1E-octenyl)-5-oxo-1α-cyclopentyl]ethyl]cyclopropanepropanoate (Group C) as in Example 13. On day -1 and 8, 50-100 μl of serum is recovered and analyzed for IgE, IgG1, IgG2a and IgG3 by Assays A, B, C and D, respectively. The selectivity of inhibition of IgE is shown in Table 12.
Three groups of 5 Balb/c female mice per group are injected with both 100 μg FF1-4D5 antibody and 100 μg H∂A1 antibody on day 0. Group A is a control with no further treatment. On day 3 and 4, the mice are injected with 20 μg (±) methyl 11α,16-dihydroxy-4,4,16-trimethyl-9-oxoprosta-13E-en-1-oate (Group B) or 20 μg (±) methyl 11α,16-dihydroxy-16-methyl-9-oxoprosta-3,5Z,13E-trien-1-oate (Group C) as in Example 13. On day -1 and 8, […] of serum is recovered and analyzed for IgE, IgG1, IgG2a, IgG3 and IgM by Assays A, B, C, D and E, respectively.

IgE [3] = test: Serum IgE response induced by FF1-4D5 + H∂A1 anti-IgD antibodies (ELISA, Assay A / Assay F); type: in vivo, mouse (Balb/c female)
Protocol: Mouse hybridoma cells expressing either FF1-4D5 antibody or H∂A1 antibody are thawed, established in culture, and incubated in mice as ascite tumors. FF1-4D5 antibody is a mouse IgG2a monoclonal antibody of the b allotype that binds the Fd fragment of the ∂ chain of the a allotype IgD which activates β cells through antigen internalization and processing, promoting cognate interactions with antigen-specific T cells (D. K. Goroff et al., J. Immunol. 136: 2382 (1986)). H∂A1 antibody is a mouse IgG2b of the b allotype that binds the Fc fragment of the ∂ chain of the a allotype IgD which activates β cells through crosslinking IgD (I. M. Zitron and B. L. Clevinger, J. Exp. Med. 152: 1135 (1980)). Each antibody is purified from their respective ascites tumor fluid. […] Serum from the injected mice is recovered and the mean concentration of IgE determined.
Serum levels of IgE are determined and IgE levels are shown to be inhibited in a dose dependent manner.
ELISA (enzyme linked immunosorbant assay) measurements of IgE are as follows. About 5 μg of B1E3 antibody in 100 μl borate buffered saline (pH8.5) is added to wells of a NuncImmulon II 96 well plate (DiRuscio & Assoc., St. Louis, Mo.) at 37° C. for 90 minutes. The non-bound antibody is removed by flicking the plate. Unreacted sites on the plastic plate are blocked by adding about 200 μl of a 2% solution of newborn bovine serum (NBS) in PBS at 37° C. for 60 minutes. The standard IgE (or an unknown murine serum sample) is diluted to between about 4 ng/ml-256 ng/ml in Hanks-HS (20 mM Hepes, 2% NBS in Hanks Balanced Salt Solution, Gibco, Grand Island, N.Y.) or to 1/200 to 1/1000 in Hanks-HS respectively. 100 μl of standard (or unknown dilutions) are added in triplicate to the wells of the plate and allowed to absorb to B1E3 antibody at about 37° C. for 2-4 hours. The solution is removed by flicking the plate and each well is washed with about 0.5 ml 0.05% Tween 20-PBS 5 times. About 100 μl of biotinylated R1E4, called the primary antibody, diluted to 200 ng/ml is added to all wells and incubated at about 4° C. overnight. The solution is removed by flicking the plate and washed 5 times as described above. The developing reagent (Avidin and biotin-horse radish peroxidase) is incubated in 2% NBS in PBS at ambient temperature for 30 minutes, according to manufacturer's specifications (Vector Laboratories, Burlingame, Calif.). About 100 μl of developing reagent is added to each well and incubated at ambient temperature for 30 minutes. Colorimetric substrate for the developing reagent (ABTS peroxidase substrate system, KPL, Gaithersburg, Md.) is prepared by mixing equal volumes of solutions A and B and incubating at ambient temperature for 60 minutes. The developing reagent solution is removed by flicking the plate and washed 5 times as described above. About 100 μl of the mixture of substrates is added to each well and incubated at ambient temperature for 60 minutes. The optical density of each well is determined on a BioTek ELISA reader (Biotek Instruments, Inc., Burlington, Vermont) and the absorbance data transferred electronically to a DEC VAX mainframe computer. A standard curve is fitted to the IgE standard optical densities using straight line, linear regression statistical fits. IgE in the unknown serum samples is determined by comparing the optical density of the unknown to the standard curve and multiplying that number by the dilution of serum used in the assay.
Stimulation of a transient serum IgE response in mouse with two monoclonal antibodies directed against IgD is carried out as follows.
Mouse hybridoma cells expressing either FF1-4D5 antibody or H∂Al antibody are thawed, established in culture, and incubated in CB6 F1 female mice as an ascites tumor and each immunoglobulin is purified from the ascites fluid as described above. […]

[4] = day -1 baseline before treatment
[5] = Table 15, 20 μg days 3 and 4, day 8 (control 5090)
[6] = Table 15, 20 μg days 3 and 4, day -1 baseline before treatment
[7] = Table 16, 10 μg days 3 and 4, day 8 (control 8548)
[8] = Table 16, 10 μg days 3 and 4, day -1 baseline before treatment

Compound | ED50 IgE Inhibition (IgE [1]) | TD50 at 8 h [2] | de novo IgE synthesis (IgE [3]; 20 μg days 3 and 4, Example 26) | IgE ± SD (IgE [3]; [5]) | IgE ± SD (IgE [3]; [6]) | IgE ± SD (IgE [3]; [7]) | IgE ± SD (IgE [3]; [8]) | de novo IgE synthesis (IgE [3]; 10 μg days 3 and 4, Example 27) | other results
CCCCC(C)(O)C/C=C/[C@H]1[C@H](O)CC(=O)[C@@H]1CC/C=C\CCC(=O)OC (mixture of isomers) [(±) methyl 11α,16-dihydroxy-16-methyl-9-oxoprosta-4Z,13E-dien-1-oate] | 4.0 μg/mouse/TID | 0.049 mg/kg |  |  |  |  |  |  | effect on IgG1 (IgG1): does not effect IgG1 or IgG2a; IgG1 ± SD (IgG1; day 9 (control 19800)): 37728 ± 6913 µg/mL; IgG1 ± SD (IgG1; [4]): 2331 ± 2212 µg/mL; effect on IgG2a (IgG2a): does not effect IgG1 or IgG2a; IgG2a ± SD (IgG2a; day 9 (control 1056)): 1058 ± 202 µg/mL; IgG2a ± SD (IgG2a; [4]): 160 ± 130 µg/mL; de novo IgE synthesis (IgE [3]; 40 μg days 3 and 4): inhibits de novo IgE synthesis; IgE ± SD (IgE [3]; Table 11, 40 μg days 3 and 4, day 8 (control 15890)): 3973 ± 905 ng/mL; IgE ± SD (IgE [3]; Table 11, 40 μg days 3 and 4, day -1 baseline before treatment): 1717 ± 313 ng/mL
CCCCC(C)(O)C/C=C/[C@H]1[C@H](O)CC(=O)[C@@H]1CCCCCCC(=O)Oc1ccc(NC(C)=O)cc1 (mixture of isomers) [(±) 4-(acetylamino)phenyl-11α,16-dihydroxy-16-methyl-9-oxoprost-13E-en-1-oate] | 1.0 μg/mouse/TID |  | inhibit de novo IgE synthesis | 1880 ± 319 ng/mL | < 800 ng/mL |  |  |  | 
CCCCC(C)(O)C/C=C/[C@H]1[C@H](O)CC(=O)[C@@H]1CCCCCCC(=O)OC(C)C (relative stereo) [(±) methylethyl-11α,16-dihydroxy-16-methyl-9-oxoprost-13E-en-1-oate] | 1.5 μg/mouse/TID |  |  |  |  | 2127 ± 149 ng/mL | < 1600 ng/mL |  | 
CCCCC(C)(O)CCC[C@H]1[C@H](O)CC(=O)[C@@H]1CCCCCCC(=O)OC (mixture of isomers) [(±) methyl-11α,16-dihydroxy-16-methyl-9-oxoprostan-1-oate] | 4.8 μg/mouse/TID |  |  |  |  | 3844 ± 238 ng/mL | < 1600 ng/mL | inhibit de novo IgE synthesis | 
CCCCC(C)(O)C/C=C/[C@H]1[C@H](O)CC(=O)[C@@H]1CCCCCCC(=O)OC (mixture of isomers) [(±) methyl 11α,16-dihydroxy-16-methyl-9-oxoprost-13E-en-1-oate] | 1.5 μg/mouse/TID | 0.36 mg/kg |  |  |  | 2123 ± 257 ng/mL | < 1600 ng/mL | inhibit de novo IgE synthesis | 
CCCCC(C)(O)C/C=C/[C@H]1[C@H](O)CC(=O)[C@@H]1CCCCCCC(=O)O (mixture of isomers) [(±) 11α,16-dihydroxy-16-methyl-9-oxo-prost-13E-en-1-oic acid] |  |  | inhibit de novo IgE synthesis | 1499 ± 132 ng/mL | 1029 ± 362 ng/mL |  |  |  | 
